Columns and labels:
[1] = tested on: IL-18 release from human monocytes-derived macrophages; test: Suppression of IL-18 release from human monocytes-derived macrophages (LPS priming, nigericin release, ELISA); type: cell-based
Description: Peripheral blood mononuclear cells (PBMCs) were isolated from blood of 6 healthy human donors and differenciates in macrophages using GM-CSF (5 ng/ml) for 5 days. They were stimulated with 1 μg/mL with lipopolysaccharide (LPS, priming phase) at time zero. At 30 minutes, they were incubated with different concentrations of dapansutrile (OLT1177™) from 0.001-100 μM. At 4 hours, 10 μM of nigericin (NIG, release phase) was added. At the end of an 5 hour incubation period, the supernatant was harvested and assayed for IL-1β or IL-18 using respective ELISA kits following manafacturer's protocols.

[2] = tested on: caspase-1; test: Caspase-1 activity in J774A.1 cell lysates after LPS and nigericin stimulation; type: cell-based, murine; conditions: 50 μM, J774A.1 cells, n=3, p<0.05
Description: J774A.1 murine macrophages cells were stimulated with 1 μg/ml lipopolysaccharide (LPS) for 4 hours and either nigericin (NIG, 10 μM) or ATP (5 mM) was added for 1 hour. OLT1177™ was added to the cells either 30 minutes following LPS stimulation or at the same time as ATP.
1 cell lysates following LPS and NIG stimulation in presence of 50 μM dapansutrile (OLT1177™). Caspase-1 activity is expressed as percent change of the mean value of each assay (n=3) with LPS/NIG set at 100%. Caspase-1 activity was reduced by 35% (p<0.05) in an enzymatic assay of cell lysate from stimulated cells in the presence of dapansutrile, comparing with control.

[3] = tested on: adult CD1 male mice, acute myocardial infarction; test: Acute myocardial infarction (30 min ischemia, 24 h reperfusion), infarct sparing effect, Example 8; type: in vivo; conditions: 60 mg/kg IP immediately after reperfusion, vs vehicle
Description: An acute myocardial infarction in adult CD1 male mice was induced by performing a transient surgical ligation of the left coronary artery for 30 minutes followed by reperfusion for 24 hours: 3 mice received OLT1177™ (60 mg/kg) given intraperitoneally immediately after reperfusion and 8 mice received an equal volume of vehicle (NaCl 0.9%). After 24 hours, left ventricular fractional shortening, a surrogate for cardiac systolic function, was measured, using transthoracic echocardiography. After the echocardiogram, the mice were prepared for infarct size measurement using the Triphenyl-Tetrazolium-Chloride (TTC) and Evans Blue technique and then sacrificed: the area of the heart considered not ischemia (non-risk area) appeared blue, the area of the heart that was at risk but viable appeared red, the infarct myocardium appeared pale-white. The left panel of FIG. 6 depicts the TTC/Evans Blue staining of one mouse treated with vehicle and one with OLT1177™: it is apparent that the area of infarct is much larger in the vehicle.

CS(=O)(=O)CCC#N [OLT1177™, 3-methanesulfonyl-propionitrile]
concentration of maximum suppression effects on IL-18 release ([1]; HMDM, 1 μg/mL LPS then 10 μM nigericin, 0.001-100 μM tested): 10 to 50 µM
release of IL-18 from stimulated monocytes-derived macrophages ([1]; LPS/nigericin, compared to control): suppresses
reduction of caspase-1 activity in cell lysate (LPS/NIG set at 100%) [2]: 35%
infarct size as percentage of the area-at-risk [3]: significantly smaller
left ventricular systolic function (fractional shortening) [3]: preservation

From US12318361B2, “Methods for treating cardiovascular diseases” (Olatec Therapeutics LLC, priority 2017, dated 2025)
